{"source": "patent US6482609B1", "about": "“Isolated human EDG-4 receptor and polynucletide encoding said receptor” (priority 1997, dated 2002)", "key": {"HeLa cells [1]": {"system": "HeLa cells", "experiment": "IL-8 ELISA on supernatants of treated HeLa cells", "assay_type": "cell-based, human", "details": "for Inhibition of IL-8 response to S1P by antioxidants: NDGA 10 or 40 μM, NAC 30 mM", "method": "Procedure #1 For HeLa Cells\nCells: HeLa (adenocarcinoma, human)\nMedia: DMEM/F12+10%FBS adherent\n1) Cells were seeded at 0.2×10^6 cells/well in 6-well plates.\n2) 1.5 ml 0.5% FBS media was added to each well.\n1) Made up all required solutions in 0.5% FBS media (control). Handling of […] for use in NF-κB experiments requires that sonication, commonly used to resuspend LPA, not be done; NF-κB may be activated by lipid peroxides created through vigorous frothing.\n3) 1.5 ml appropriate treatments were added to each well.\n5) After the specified time cell supernatants were collected into 1.5 ml eppendorf tubes, spun down at 14000 rpm for 5 minutes and stored at −20° C. for later ELISA determination.\nD. Detection of Interleukin-8 (IL-8) using an IL-8 ELISA (Enzyme-Linked InimunoSorbent Assay).\n1) The Quantikine Human IL-8 ImmunoAssay Kit was obtained from R&D Systems (Cat. D8050).\n4) The assay procedure was followed as recommended in the kit for cell culture supernatant samples.\n5) ELISA was performed on 50 μl samples of culture supernatant and duplicate samples were measured for each well. Each treatment was performed on triplicate wells.\n6) Plates were read on UVmax kinetic microplate reader (Molecular Devices), set to 450 nm and correction set to 575 nm, using Wsoftmax software version 2.34.\nProcedure #2 For HeLa Cells\n1) Cells were seeded at 2.5×10^4 cells/well in 24-well plates.\n2) 0.5 ml 0.5% FBS media was added to all wells not requiring PTX pre-treatment.\n3) For wells requiring PTX; 0.5 ml 0.5% FBS media containing 50 ng/ml PTX (1 volume PTX (RBI Cat. P140): 1 volume DTT, incubate 37° C. for 30 minutes then dilute to 50 ng/ml) was added.\nFollow Procedure #2 For HeLa Cells with the following exceptions:\nConcentrations for LPC, LPE, LPG, LPS, sphingosine and SM used were 10, 50, 100, 1000, and 5000 nM. Concentrations for LPI, lyso-PAF and lysosulfatide used were 0.3 and 3 μM.\n2) A 30 minute pre-treatment at 37° C./5%CO2 of 0.5 ml of suramin was done to all wells except control, any PTX and ET-18-OCH3 wells before step 3 of section C."}, "human EDG-4": {"biological_target": "human EDG-4 (Homo sapiens, UniProt O95136)", "experiment": "SRE luciferase reporter in 293-EBNA cells, human EDG-4", "assay_type": "cell-based", "details": "for EC50: 293-EBNA expressing human EDG-4, luciferase after 6 hr, pcDNA3 response subtracted; for Agonist character at EDG-4: conclusion from the reporter assay of Table 2; for Rank (EMax): rank of efficacy among compounds tested", "method": "NE-κB activates gene expression by binding to specific DNA sequences found in the promoters of genes regulated by this inflammation-related transcription factor. […] The SRE reporter was identical to the NF-κB reporter, except that the NF-κB binding sites were replaced with 2 SRE sites. The new reporter was called 2XSREtk-p4Luc-zeo.\nThe protocol described in Example 11 for Assay 1 was followed except for the following changes:\n2) SRE Cotransfection: 0.5 μg of 2XSREtk-p4Luc-zeo reporter DNA and 3.5 μg pcDNA3, EDG-1, EDG-3 (pC3-hE3HP2, different from the clone used in Assay 2 of Example 11) or the newly cloned human EDG-4 (pC3-hedg4#36); NF-κB Cotransfection: 2 μg 6XNFκBtk-p4Luc-zeo reporter DNA and 2.0 μg pcDNA3, EDG-1, EDG-3 (pC3-hE3HP2), or EDG-4 (pC3-hedg4#36). Expression plasmid and reporter plasmid DNA samples were combined and diluted in 750 μl of DMEM/F12 (serum free media) and 20 μl Plus Reagent (Lipofectamine Plus Kit, Life Technologies Cat. 10964-013), and incubated at room temperature for 15 min.\n1) Media was removed and cells treated with compounds diluted in DMEM/F12 media.\n2) The cells were treated for 6 hours.\n3) Luciferase assay was performed.\nTransfection was accomplished using the Lipofectamine Plus kit (Life Technologies, Cat. 10964-013), using the manufacturer's recommended conditions.\n(§1) Transfection of EDG-4, expression, pretreatment and treatment of 293-EBNA cells expressing recombinant human EDG-4 was carried out essentially as described in “Example 11. […] Results were tabulated in Microsoft Excel, and analyzed with GraphPad Prism software. […] The luciferase response was expressed as fold response, after subtracting any endogenous response in pcDNA3-transfected cells at a given concentration of compound."}, "[2]": {"system": "Human Umbilical Vein Endothelial Cells (HUVEC)", "experiment": "IL-8 ELISA on primary cultured HUVEC treated with lysolipids", "assay_type": "cell-based", "details": "6 hr treatment", "method": "Plating, Pretreatment and Treatment of HUVEC\nProcedures were followed as detailed above in “Procedure #1 for HeLa Cells” with the following exceptions:\nCells were plated at 20,000 cells/well into 24-well plates. The next day, cells were serum-starved overnight in EBM medium (Clonetics) with 0.5% FBS, and then treated in EBM without FBS for 6 hr with the following lysolipids:\nSupematants were collected and IL-8 levels were deternined using ELISA as described previously."}, "[3]": {"system": "293-EBNA cells expressing recombinant human EDG-4", "experiment": "Cytotoxicity seen in the EDG-4 agonist reporter assay (293-EBNA cells)", "assay_type": "cell-based", "method": "as §1"}, "HL-60 cells": {"system": "HL-60 cells", "experiment": "IL-8 ELISA on HL-60 cells", "assay_type": "cell-based, human", "details": "1, 6 or 24 hr, S1P or LPA up to 3 μM, TNF-α 10 ng/ml", "method": "Procedure for HL-60 Cells:\nCells: HL-60 (promyelocytic, human) suspension cells\nMedia: RPMI 1640 medium with 2 mM L-glutamine adjusted to contain 4.5 g/L glucose, 10 mM HEPES, and 1.0 mM sodium pyruvate+10% FBS\n1) Cells were plated at a density of 0.25×10^6 cells/ml.\n2) Cell pellcts were resuspended in 0.5% FBS media at a density of approximately 1×10^6 cells/ml.\n1) Made up all required solutions in 0.5% FBS media (control).\n2) 1.4 ml appropriate treatments were added to each well of a 6-well plate.\n5) 100 μl cell suspension was added to each well.\n7) After the specified time cell supematants were collected into 1.5 ml eppendorf tubes, spun down at 14000 rpm for 5 minutes and stored at −20° C.\nD. Refer to Procedure #1 For HeLa Cells (D)."}, "rat edg4": {"biological_target": "rat edg4 (Rattus norvegicus, UniProt P47752)", "sequence (P47752 whole entry)": "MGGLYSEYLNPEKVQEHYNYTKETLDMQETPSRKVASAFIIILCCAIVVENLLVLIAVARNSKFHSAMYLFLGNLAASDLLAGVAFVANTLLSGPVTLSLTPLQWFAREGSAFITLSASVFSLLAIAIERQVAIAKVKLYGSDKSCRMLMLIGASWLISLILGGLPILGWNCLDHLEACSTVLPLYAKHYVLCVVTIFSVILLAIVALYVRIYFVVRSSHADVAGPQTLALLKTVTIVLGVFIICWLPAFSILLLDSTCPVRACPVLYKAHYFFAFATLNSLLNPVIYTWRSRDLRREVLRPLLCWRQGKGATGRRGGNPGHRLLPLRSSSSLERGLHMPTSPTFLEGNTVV", "experiment": "NF-κB-tk-p4Luc luciferase reporter in 293-EBNA cells, rat EDG-4", "assay_type": "cell-based", "set-up": "expressed in transfected cells; host or cells: 293-EBNA", "details": "pC3-redg4, Assay #1, 24 hrs", "experimental": "Monolayer Transient Transfection Protocol for 293-EBNA\n1) 150 mm plates of 293-EBNA obtained from Invitrogen (Cat. R620-07) with a confluency of ˜80% were used for transfection.\n2) 6.6 μg NF-κB-tk-p4Luc reporter DNA and 6.6 μg of pC3-redg4 (expressing rat EDG-4), or pcDNA3 DNA was diluted in 500 μl OPTI-MEM (Gibco; Cat. 31985-062)\n3) 96.8 μl Lipofectamine (Gibco; Cat. 18324-020) was diluted in 500 μl of OPTI-MEM.\n6) 6 ml OPTI-MEM was added to each transfection tube and this was added to a plate of 293-EBNA cells. The plates were left for 4 hrs at 37° C. in a 5% CO2 incubator.\n2) 0.02×10^6 cells were plated per well of a 96-well Blackview plate coated with polyD-lysine. No cells were plated in the outside wells of the 96well plate. Two 96-well plates were seeded for each transfection.\n1) Cells were washed with PBS and 140 μl serum-free media (SFM) added to each well. Plates were incubated in 37° C. incubator for 6 hrs.\n2) After 6 hrs, media was removed and cells treated with compounds diluted in 0.5% FBS media (140 μl added to each well).\n3) Cells were treated for 24 hrs.\n1) Luclite kit (Packard; Cat. 6016911) was used for luciferase assay. All reagents were brought to room temperature before use.\n3) 50 μl 0.5M HEPES pH 7.8 buffer (1 mM MgCl2, 1 mM CaCl2) was added to all wells of 96-well plate. Black adhesive backing (Polyfitronics) was aligned to the bottom of the viewplate.\n4) Luclite substrate was made up by adding 10 ml substrate diluent to 1 vial lyophilized substrate. Reconstituted substrate was kept under a dark container. 50 μl substrate was added to each well.\n7) After incubation, plates were counted in a 12-detector Packard Top Count on a program without dark delay.\nTransient Transfection Protocol for 293-EBNA\nThe above protocol for assay 1 was followed except for the following changes:\n2) 3 μg NFκB-tk-p4Luc reporter DNA and 3 μg pC3-hedg1, pC3-hedg3, pC3-redg4, pC3-hedg5 or pcDNA3 DNA was diluted in 240 μl OPTI-MEM (Gibco; Cat. 31985-062)\n1) 0.01×10^6 cells were plated per well of a 96-well Blackview plate coated with polyD-lysine. No cells were plated in the outside wells of the 96-well plate."}, "HeLa cells [4]": {"system": "HeLa cells", "experiment": "Cytotoxicity (viable cell count) in HeLa cells", "assay_type": "cell-based, human", "details": "40 μM", "description": "Follow Procedure #2 For HeLa Cells with the following exceptions: […]"}, "[5]": {"details": "S1P 1 μM, 30 minute pre-treatment"}}, "note": "Like-named read-outs stand apart in the source and are kept apart here.", "data": [{"compound": "CC(=O)N[C@@H](CS)C(=O)O", "note": "[NAC]", "values": [{"measurement": "Inhibition of IL-8 response to S1P by antioxidants", "setting": "HeLa cells [1]; [5]", "result": "significantly inhibited"}]}, {"compound": "CCCCCCCCCCCCC/C=C/[C@@H](O)[C@@H](N)CO[C@@H]1O[C@H](CO)[C@H](O)[C@H](O)[C@H]1O", "note": "[Psychosine]", "values": [{"measurement": "EC50", "setting": "human EDG-4", "result": "> 10", "unit": "µM"}, {"measurement": "Agonist character at EDG-4", "setting": "human EDG-4", "result": "poor potency and efficacy"}, {"measurement": "Rank (EMax)", "setting": "human EDG-4", "result": 5}, {"measurement": "IL-8 response (qualitative)", "setting": "[2]", "result": "Marginal increases"}, {"measurement": "Cytotoxicity (qualitative)", "setting": "[3]; higher concentrations", "result": "cytotoxicity at higher concentrations"}]}, {"compound": "TNF-α", "values": [{"measurement": "IL-8 release", "setting": "HL-60 cells", "result": "releasing IL-8"}]}, {"compound": "CCCCC/C=C\\C/C=C\\C/C=C\\C/C=C\\CCCC(=O)NCCO", "note": "[anandamide]", "values": [{"measurement": "IL-8 response (qualitative)", "setting": "[2]", "result": "no response"}]}, {"compound": "CCCCCCCCCCCCC/C=C/[C@@H](O)[C@@H](N)CO", "note": "[sphingosine, Sphingosine]", "values": [{"measurement": "IL-8 production (ligand selectivity)", "setting": "HeLa cells [1]; 6 hours, 10-5000 nM or 0.3 and 3 μM", "result": "lack of response"}]}, {"compound": "CCCCCCCCCCCCCCC[C@@H](O)[C@@H](N)COP(=O)(O)O", "note": "[Dihydro-S1P, dihydrosphingosine 1-phosphate]", "values": [{"measurement": "EC50", "setting": "human EDG-4", "result": 0.53, "unit": "µM"}, {"measurement": "Agonist character at EDG-4", "setting": "human EDG-4", "result": "partial agonist"}, {"measurement": "Max. Fold", "setting": "human EDG-4; fold luciferase response, 6 hr", "result": 2.84}, {"measurement": "Rank (EMax)", "setting": "human EDG-4", "result": 3}, {"measurement": "EMax (Percent)", "setting": "human EDG-4; relative efficacy, 6 hr", "result": 49.2, "unit": "%"}]}, {"compound": "CCCCCCCCCCCCCC(=O)O[C@@H]1[C@@H](C)[C@@]2(O)[C@@H](C=C(CO)C[C@]3(O)C(=O)C(C)=C[C@@H]23)[C@H]2C(C)(C)[C@]12OC(C)=O", "note": "[TPA]", "values": [{"measurement": "NF-κB reporter induction (qualitative)", "setting": "rat edg4", "result": "strongly induced the NF-κB reporter"}]}, {"compound": "CC(Cc1ccc(O)c(O)c1)C(C)Cc1ccc(O)c(O)c1", "note": "(stereo not drawn) [NDGA]", "values": [{"measurement": "Toxicity", "setting": "HeLa cells [4]", "result": "some toxicity"}, {"measurement": "Relative potency of antioxidants in inhibiting IL-8 response to S1P", "setting": "HeLa cells [1]; S1P 1 μM", "result": "more potent than the hydrophilic NAC"}, {"measurement": "Inhibition of IL-8 response to S1P at 40 μM", "setting": "HeLa cells [1]; S1P 1 μM, NDGA 40 μM", "result": "completely inhibited the IL-8 response to S1P"}, {"measurement": "Inhibition of IL-8 response to S1P by antioxidants", "setting": "HeLa cells [1]; [5]", "result": "significantly inhibited"}]}, {"compound": "CCCCCCCCCCCCC/C=C/[C@@H](O)C(N)CO[C@@H]1O[C@H](CO)[C@@H](O)[C@H](O)[C@@H]1O", "note": "(stereo partly drawn) [Glucospychosine, glucopsychosine]", "values": [{"measurement": "EC50", "setting": "human EDG-4", "result": "> 10", "unit": "µM"}, {"measurement": "Agonist character at EDG-4", "setting": "human EDG-4", "result": "poor potency and efficacy"}, {"measurement": "Rank (EMax)", "setting": "human EDG-4", "result": 4}, {"measurement": "Concentration at which cytotoxicity was seen", "setting": "[3]", "result": "^aCytotoxicity was seen at 10 μM or higher concentrations, preventing quantitative determination of EC50 or EMax"}, {"measurement": "Cytotoxicity (qualitative)", "setting": "[3]", "result": "cytotoxicity at higher concentrations"}]}, {"compound": "Cc1ccc(C(=O)Nc2ccc(S(=O)(=O)O)c3cc(S(=O)(=O)O)cc(S(=O)(=O)O)c23)cc1NC(=O)c1cccc(NC(=O)Nc2cccc(C(=O)Nc3cc(C(=O)Nc4ccc(S(=O)(=O)O)c5cc(S(=O)(=O)O)cc(S(=O)(=O)O)c45)ccc3C)c2)c1", "note": "[Suramin]", "values": [{"measurement": "Inhibition of the IL-8 response to edelfosine", "setting": "HeLa cells [1]; PTX 50 ng/ml or suramin 1 mg/ml", "result": "potently inhibited"}, {"measurement": "Effect of suramin on IL-8 response to S1P", "setting": "HeLa cells [1]; S1P 1 μM, suramin 1 mg/ml, 30 minute pre-treatment", "result": "extremely effective in blunting the IL-8 response to S1P"}]}, {"compound": "CCCCCCCCCCCCCCCCCCOCC(COP(=O)([O-])OCC[N+](C)(C)C)OC", "note": "(stereo not drawn) [Edelfosine]", "values": [{"measurement": "IL-8 response (qualitative)", "setting": "[2]", "result": "no response"}]}]}
